Data set [1] can be described thus: Chemical and physical stability of the salts at the end of the preparation. Format: physicochemical. From the text:
It is crucial for drug development whether the salts obtained as above have chemical and physical stability at the end of the preparation.

A further data set in a line: Dynamic solubility test. The class given is physicochemical. As to conditions: room temperature, feeding concentration 10 mg/mL, listed as compound of formula (I). How it is done: Determination method: According to a feeding concentration of 10 mg/mL, about 50 mg of the sample were weighed and added to 5 mL of the corresponding medium, and the sample was dissolved by rotating at […] at room temperature.

Data set [2] concerns EGFR activating mutation (exon 19 deletion activating mutation, L858R activating mutation, T790M drug resistance mutation and exon 20 insertion mutation). As to conditions: disclosed in CN105461695B; cited from earlier work.
Data set [3] can be described thus: Drug absorption test in male Han-Wister rats. The class given is in vivo. As to the method: Intravenous administration: Three healthy male Han-Wister rats having a body weight of 250-350 g were provided by Beijing Vital River Laboratory Animal Technology Co., Ltd. The above compound of Example 1 was administered intravenously at the doses (calculated based on free base) listed in Table 1 below, respectively. Before administration and 15 min, 0.5 h, 1.0 h, 2.0 h, 4.0 h, 8.0 h, 12 h, and 24 h after administration, jugular vein puncture was performed to take 0.05 mL of blood, plasma was separated and prepared, and the drug concentration in the plasma was measured by liquid chromatography-tandem mass spectrometry (LC-MS) to obtain a drug concentration-time curve.
Intragastric administration: Twelve healthy male Han-Wister rats having a body weight of 250-350 g were provided by Beijing Vital River Laboratory Animal Technology Co., Ltd. and randomly divided into 4 groups. The above compounds of Example 1, Example 2, Example 3 and Example 4 were administered intragastrically at the doses (calculated based on free base) listed in Table 2 below, respectively. Before administration and 15 min, 0.5 h, 1.0 h, 2.0 h, 4.0 h, 8.0 h, 12 h, and 24 h after administration, jugular vein puncture was performed to take 0.05 mL of blood, plasma was separated and prepared, and the drug concentration in the plasma was measured by liquid chromatography-tandem mass spectrometry (LC-MS) to obtain a drug concentration-time curve.

Data set [4] in a line: Solid solubility test (2 h and 24 h). Format: physicochemical. As to conditions: for Solubility measured at 24 h: 37° C., based on free base.
Data set [5] in a line: Solid storage stability test. Format: physicochemical. Conditions: for physical and chemical stability (in words): listed as amorphous free base. As to the method:
Each amorphous salt solid was weighed (two 2 mg samples were weighed for purity testing after solid storage stability study, and one 10 mg sample was weighed for XRPD testing after solid storage stability study) and placed in a glass vial. In a 25° C./60% RH solid storage stability test, the amorphous salt solid was placed in a 25° C./60% RH constant temperature and humidity chamber, and placed in the dark for 1 week (i.e. “solid/25° C./60% RH/open/1 week”), and in a 60° C. solid storage stability test, the amorphous salt solid was sealed in an oven at 60° C. and heated for 1 week in the dark (i.e. “solid/60° C./closed container/1 week”). Then the sample was taken out for purity testing, crystal form detection and appearance observation, respectively.

Data set [6] in a line: Solid solubility test (2 h and 24 h). Format: physicochemical. Conditions: Test ES4: FaSSIF-V1 (pH 6.5). As to the method:
5 samples were weighed for each amorphous salt solid (equivalent to 20 mg of free base), and 10 mL of the following solvents were respectively added: 0.1N HCl solution (pH 1.0), 50 mM phosphate buffer (pH 4.5), FeSSIF-V1 (pH 5.0), FaSSIF-V1 (pH 6.5) and SGF (pH 2.0), and stirred at 37° C. for 2 h. The suspension was then centrifuged at 37° C., the supernatant was measured for solubility by HPLC, and the solid fraction was measured for XRPD. The target solubility was at least 2 mg (based on free base)/mL.

[7] abbreviates: intragastric administration, doses 80, 100, 93.2, 81.1 mg/kg for Example 1, 2, 3, 4 (calculated based on free base).
The mark [8] stands for this setting: Test BS1: solid/25° C./60% RH/open/1 week.
Setting [9] is: Test BS2: solid/60° C./closed container/1 week.

“Also recorded” adds a separate entry of the source. Like-named read-outs stand apart in the source and are kept apart here.

For the molecule `C=CC(=O)Nc1cc(Nc2ncnc(-c3cn(C)c4ccccc34)n2)c(OC)cc1N(C)CCN(C)C` [Example 15], in data set [1] (listed as amorphous sulfosalicylate salt (Sample No. Y11526-25-FD12-1,4-dioxane)), the “chemical and physical stability at the end of the preparation” value (from here on “chemical and physical stability”) was “chemically and physically stable”.
Take `C=CC(=O)Nc1cc(Nc2ncnc(-c3cn(C)c4ccccc34)n2)c(OC)cc1N(C)CCN(C)C` [Example 14]: the “chemical and physical stability” value in data set [1] (listed as amorphous sulfosalicylate salt (Sample No. Y11526-25-FD13-1,4-dioxane)) was “chemically and physically stable”.
Take `C=CC(=O)Nc1cc(Nc2ncnc(-c3cn(C)c4ccccc34)n2)c(OC)cc1N(C)CCN(C)C` [Example 13]: the “chemical and physical stability” value in data set [1] (listed as amorphous 2 eq. p-tosylate salt) was “chemically stable; also recorded: physically unstable due to caking and fusion to a glassy state upon short exposure to environmental conditions”.
For `C=CC(=O)Nc1cc(Nc2ncnc(-c3cn(C)c4ccccc34)n2)c(OC)cc1N(C)CCN(C)C` [Example 12], in data set [1] (listed as amorphous sulfate salt), the “chemical and physical stability” value is “chemically stable; also recorded: physically unstable due to a certain hygroscopicity”.
Turning to `C=CC(=O)Nc1cc(Nc2ncnc(-c3cn(C)c4ccccc34)n2)c(OC)cc1N(C)CCN(C)C` [Example 21], the dynamic solubility was below 1.0 mg/mL in the data set “Dynamic solubility test” (SGF, 0.5 h); below 1.0 mg/mL in “Dynamic solubility test” (SGF, 1 h); below 1.0 mg/mL in “Dynamic solubility test” (SGF, 2 h); below 1.0 mg/mL in “Dynamic solubility test” (SGF, 4 h); below 1.0 mg/mL in “Dynamic solubility test” (SGF, 24 h); below 1.0 mg/mL in “Dynamic solubility test” (water, 0.5 h). Moreover, the dynamic solubility is recorded as below 1.0 mg/mL in the data set “Dynamic solubility test” (water, 1 h); below 1.0 mg/mL in “Dynamic solubility test” (water, 2 h); below 1.0 mg/mL in “Dynamic solubility test” (water, 4 h); below 1.0 mg/mL in the data set “Dynamic solubility test” (water, 24 h). Further, the “inhibitory activity against EGFR activating mutation compared with wild-type EGFR (WT EGFR)” value in data set [2] is reported as “significantly higher”.
Consider `C=CC(=O)Nc1cc(Nc2ncnc(-c3cn(C)c4ccccc34)n2)c(OC)cc1N(C)CCN(C)C` [Example 1], for which the AUC0-t is 3968 ng·h/mL in data set [3] (setting [7]) and 446 ng·h/mL in data set [3] (male, Han-Wister, rat, plasma, iv, 1 mg/kg, intravenous administration, 1.0 mg/kg (calculated based on free base), rat plasma, read-out: AUC0-t). The Cmax in data set [3] (setting [7]) is 583 ng/mL; in data set [3] (male, Han-Wister, rat, plasma, iv, 1 mg/kg, intravenous administration, 1.0 mg/kg (calculated based on free base), rat plasma, read-out: Cmax), 364 ng/mL. The F in data set [3] (intragastric versus intravenous administration, doses 80, 100, 93.2, 81.1 mg/kg for Example 1, 2, 3, 4) turned out to be 11.1%. Further, the half-life is 179 min in data set [3] (male, Han-Wister, rat, plasma, iv, 1 mg/kg, intravenous administration, 1.0 mg/kg (calculated based on free base), rat plasma) and 202 min in data set [3] (male, Han-Wister, rat, plasma, po, 81.1 mg/kg, intragastric administration, doses 80, 100, 93.2, 81.1 mg/kg for Example 1, 2, 3, 4 (calculated based on free base)). Moreover, the “pH measured at 24 h” value in data set [4] (Test ES3: FeSSIF-VI (pH 5.0)) is on record as “(5.0)”; in data set [4] (Test ES4: FaSSIF-VI (pH 6.5)), “(6.8)”. For the same molecule, the “Solubility measured at 24 h” value in data set [4] (Test ES3: FeSSIF-VI (pH 5.0)) and in data set [4] (Test ES4: FaSSIF-VI (pH 6.5)) was above 2 mg/mL throughout. Moreover, the Color entry in data set [5] (setting [8]) and in data set [5] (setting [9]) was “no color change” in each case. For the same molecule, the “Morphology (XRPD crystallinity)” value in data set [5] (setting [8]) is recorded as “amorphous (FIG. 89),”; in data set [5] (setting [9]), “medium crystallinity”. Further, in data set [5] (setting [8]), the “Morphology (agglomeration, appearance)” value is “no agglomeration”. The “physical and chemical stability (in words)” value is “good physical and chemical stability” in data set [5] (solid/25° C./60% RH/open/1 week); “transformed from amorphous to a moderate crystallinity” in data set [5] (solid/60° C./closed container/1 week). The “pH measured at 2 h” value in data set [6] was “(6.8)”. For the same molecule, the “Solubility measured at 2 h” value in data set [6] (37° C., based on free base) is above 2 mg/mL.

The record behind these values is patent publication US20240391902A1, “Crystalline Form of Compound” (Shenzhen Forward Pharmaceuticals Co., Limited, priority 2020, published 2024).
